Measured values reported in US20230302160A1, “TUMOR CONTRAST COMPOUND, PREPARATION METHOD THEREFOR AND APPLICATION THEREOF IN TUMOR DIAGNOSTIC IMAGING” (Ningbo Haibo Biotechnology Co., Ltd, priority 2020, published 2023).
Read-outs that look alike come from different tables or passages of the source.

Tests used:
[1] = tested on: diseased colonic tissue in a mouse primary bowel cancer tumor model (APCmin/+); experiment: Near-infrared imaging of diseased colon tissue immersed in compound/surfactin mixture, primary bowel cancer model; details: for recognition of tumor lesions: mixture with surfactin 1:5 (20 μM/100 μM), colon tissue immersed 12 min; for imaging ranking: mixture with surfactin 1:5, colon tissue immersed 12 min
Protocol: Establishment of the mouse primary bowel cancer tumor model of APCmin/+ mouse model: parent C57BL/6J-APC min/+ mice and C57BL/6J wt mice were caged and propagated. The genotype of the offspring was detected and the offspring C57BL/6J-APC min/+ mice (diseased mice) were screened. The offspring C57BL/6J-APC min/+ mice were killed at week 20. Mice were dissected and diseased colon tissue was taken. Colon was cut longitudinally for subsequent tests.
Compounds 1-8 were added to the aqueous solution of surfactin.
The diseased colon tissue of mice was immersed in the above fluid. A fluorescence imager was used for imaging after 12 min.

[2] = Fluorescence quenching effect after mixing with surfactin in different ratios (fluorescence imager, ROI); type: physicochemical; details: compound 20 μM with surfactin
Protocol: The test solution was shaken for 5 min and added to a black 96-well plate with 50 ul of test solution per experimental well. Then a fluorescence imager was used for imaging. The photos were taken under Ex=745 nm, Em=820 nm. The ROI (Region of Interest) value for each well was quantitatively calculated.

[3] = tested on: tumor tissue in a mouse subcutaneous xenograft renal clear cell carcinoma tumor model (786o); experiment: Near-infrared imaging of excised tumor tissue immersed in compound/surfactin solution, renal clear cell carcinoma model; details: compound 20 μM, surfactin 100 μM (1:5), 786o xenograft tumor tissue immersed; for correlation between uptake by tumor tissues and immersion time: ROI
Protocol: (§1) Mice were dissected, and tumor tissues were taken.
Compounds 1-8 were added to the aqueous solution of surfactin. The final concentration of surfactin was 100 μM, and the final concentration of each compound was 20 μM (the molar ratio of the compound to surfactant was 1:5).
(§2) The tumor tissue was immersed in the above liquid.

[4] = Fluorescence emission spectroscopy test after mixing with surfactin in different ratios; type: physicochemical; details: for fluorescence quenching in aqueous solution under the action of surfactin compared with methanol solution (emission spectra): compound 20 μM, Ex=730 nm, Em=760-960 nm, ratio 1:5 stated for Compounds 1-3; for fluorescence quenching effect when the amount of surfactin was reduced: compound:surfactin from 1:5 to 1:1, 1:0.2
Protocol: Surfactin in different concentrations was added to the aqueous solution of the corresponding compound (final concentration of 20 μM), and the molar ratio of the compound to be tested to surfactin was 1:5, 1:1, 1:0.2. A methanol solution of the corresponding compound (final concentration of 20 μM) was used as a positive control. The test solution was shaken for 5 minutes and its fluorescence emission spectra (Ex=730 nm, Em=760-960 nm) were detected using a fluorescence spectrophotometer.

[5] = tested on: human renal cancer cell line A498; experiment: Fluorescence localization imaging in human renal cancer cell line A498; type: cell-based; details: same method as Example 2; for intracellular localization: A498 cells
Protocol: 786o cells (3×10^5/well) were seeded in a 6-well plate in advance and placed in a cell culture incubator for 48 h. After the culture medium was blotted, a culture medium comprising the corresponding compound (5 μM) and Mito-tracker (0.2 nM) was added to the experimental well, incubated for 30 min, cleaned three times with PBS solution, and imaged using a fluorescence microscope equipped with an infrared camera and a continuous LED light source. The near-infrared photos were taken under Ex=745 nm, Em=820 nm; the Mito-tracker photos were taken under Ex=488 nm and Em=520 nm.
The same method as Example 2 was employed except that the human renal cancer cell line A498 was used to detect the localization of Compounds 4, 5 within the cell.

[6] = tested on: organic anion transporting polypeptides (OATPs); details: compound:surfactin 1:5, 1 mM sodium bromosulfophthalein (50 equivalent), renal clear cell carcinoma xenograft tumor tissue
Protocol: Female nude mice around 5 weeks of age were ordered and subjected to subcutaneous renal clear cell cancer cell 786o inoculation after one week of barrier environmental adaptation at a specific position above the right lower limb (3×10^6/pce, suspended in 200 μl PBS solution). When the tumor volume reached 50-150 mm^3 (about 12-22 days), nude mice were randomly grouped with 3 mice in each experimental group. Mice were dissected, and tumor tissues were taken.
The tumor tissue was immersed in the above liquid. A fluorescence imager was used for imaging after a specified time.

[7] = molar ratio 1:1
Protocol: Different surfactants were added to the aqueous solution of Compound 4 (final concentration of […]), and the molar ratio of the compound to be tested to surfactin was 1:1. In addition, a methanol solution of the compound (final concentration of 20 μM) was used as a positive control. The test solution was shaken for 5 minutes and its fluorescence emission spectra (Ex=730 nm, Em=760-960 nm) were detected using a fluorescence spectrophotometer.

[8] = tested on: tumor tissue in a mouse subcutaneous xenograft breast cancer tumor model; experiment: Near-infrared imaging of tumor tissue, breast cancer model; details: compound:surfactin 1:5, breast cancer xenograft tumor tissue; for correlation between uptake by tumor tissues and immersion time: ROI
Excerpt: as §1, §2

Compound | recognition of tumor lesions [1] | fluorescence quenching effect, comparison between compounds [2] | reason for near-infrared imaging of tumor tissues [3] | correlation between uptake by tumor tissues and immersion time [3] | fluorescence quenching in aqueous solution under the action of surfactin compared with methanol solution (emission spectra) [4] | fluorescence quenching effect when the amount of surfactin was reduced [4] | intracellular localization [5] | uptake by tumor cells [5] | imaging ranking [1] | effect of excessive sodium bromosulfophthalein on uptake by tumor tissues [6] | fluorescence signal in aqueous solution after mixing ([7]; mixed with anionic surfactants (surfactin, sodium dodecyl sulfonate, sodium dodecyl benzene sulfonate)) | fluorescence signal in aqueous solution after mixing ([7]; mixed with cationic surfactants (dodecyltrimethylammonium chloride, tetrabutylammonium iodide)) | fluorescence signal in aqueous solution after mixing ([7]; mixed with human serum albumin) | fluorescence signal in aqueous solution after mixing ([7]; mixed with nonionic surfactants (Kolliphor, P123)) | overall imaging of tumor tissue [3] | uptake of the compound by tumor tissue (level) [3] | uptake of the compound by tumor tissue (level) [8] | correlation between uptake by tumor tissues and immersion time [8]
CC1(C)C(/C=C/C2=C(Cl)C(=C/C=C3/N(CCCCCC(=O)O)c4ccccc4C3(C)C)/CCC2)=[N+](CCCCCC(=O)O)c2ccccc21 [Compound 1, reference compound] | had a recognition effect | the worst | non-specific adsorption of the compounds by tissues | no obvious positive correlation | obvious fluorescence quenching | significantly reduced |  |  |  |  |  |  |  |  |  |  |  | 
CCN1/C(=C/C=C2\CCCC(/C=C/C3=[N+](CC)c4ccccc4C3(C)C)=C2Cl)C(C)(C)c2ccccc21 [Compound 2, reference compound] | had a recognition effect |  | non-specific adsorption of the compounds by tissues | no obvious positive correlation | obvious fluorescence quenching | significantly reduced |  |  |  |  |  |  |  |  |  |  |  | 
CC[N+]1=C(/C=C/C2=C(Cl)C(=C/C=C3/N(CCCCCC(=O)O)c4ccccc4C3(C)C)/CCC2)C(C)(C)c2ccccc21 [Compound 3, reference compound] | had a recognition effect |  | non-specific adsorption of the compounds by tissues | no obvious positive correlation | obvious fluorescence quenching | significantly reduced |  |  |  |  |  |  |  |  |  |  |  | 
CC[N+]1=C(/C=C/C2=C(Cl)C(=C/C=C3/N(CCCCCC(=O)Oc4ccccc4)c4ccccc4C3(C)C)/CCC2)C(C)(C)c2ccccc21 [Compound 4] | high specific recognition | better than that of Compounds 1, 2 and 3 | targeted recognition of tumor tissues by the compounds | an obvious positive correlation | obvious fluorescence quenching | not significantly reduced | enriched in mitochondria | uptaken by tumor cells | best imaged | effectively reduce the uptake | substantially no fluorescence signal | still fluorescence signal | still fluorescence signal | still fluorescence signal | optimal imaging of tumor tissue | high uptake | higher | an obvious positive correlation
CC[N+]1=C(/C=C/C2=C(Cl)C(=C/C=C3/N(CCCCCC(=O)Oc4ccc(NC(=O)OC(C)(C)C)cc4)c4ccccc4C3(C)C)/CCC2)C(C)(C)c2ccccc21 [Compound 5] | high specific recognition | better than that of Compounds 1, 2 and 3 | targeted recognition of tumor tissue by the compounds | a certain positive correlation | obvious fluorescence quenching | not significantly reduced | enriched in mitochondria | uptaken by tumor cells |  |  |  |  |  |  |  | low uptake |  | 
CC[N+]1=C(/C=C/C2=C(Cl)C(=C/C=C3/N(CCCCCC(=O)Nc4ccc(NC(=O)OC(C)(C)C)cc4)c4ccccc4C3(C)C)/CCC2)C(C)(C)c2ccccc21 [Compound 6] | high specific recognition |  | targeted recognition of tumor tissues by the compounds | an obvious positive correlation | obvious fluorescence quenching | not significantly reduced |  |  | best imaged |  |  |  |  |  | optimal imaging of tumor tissue | high uptake | higher | an obvious positive correlation
